# Experiments:
# [1] = test system: NCI-H322M; experiment: Growth inhibition of human NCI-H322M cells incubated for 48 hrs by sulforhodamine B assay; format: functional, cell-based
# [2] = test system: SF-268; experiment: Growth inhibition of human SF268 cells incubated for 48 hrs by sulforhodamine B assay; format: functional, cell-based; conditions: SF-268, 48 h
# [3] = test system: IGROV-1; experiment: Growth inhibition of human IGROV1 cells incubated for 48 hrs by sulforhodamine B assay; format: functional, cell-based; conditions: IGROV-1, 48 h
# [4] = test system: OVCAR-3; experiment: Growth inhibition of human OVCAR3 cells incubated for 48 hrs by sulforhodamine B assay; format: functional, cell-based; conditions: OVCAR-3, 48 h
# [5] = test system: RXF 393; experiment: Growth inhibition of human RXF393 cells incubated for 48 hrs by sulforhodamine B assay; format: functional, cell-based; conditions: RXF 393, 48 h
# [6] = test system: PC-3; experiment: Growth inhibition of human PC3 cells incubated for 48 hrs by sulforhodamine B assay; format: functional, cell-based; conditions: PC-3, 48 h
# [7] = test system: SR; experiment: Growth inhibition of human SR cells assessed as cell growth at 0.01 uM incubated for 48 hrs by sulforhodamine B assay relative to control; format: functional; conditions: read-out: Activity
# [8] = test system: KM12; experiment: Growth inhibition of human KM12 cells assessed as cell growth at 0.01 uM incubated for 48 hrs by sulforhodamine B assay relative to control; format: functional; conditions: KM12, 48 h, read-out: Activity
# [9] = test system: SNB-19; experiment: Growth inhibition of human SNB19 cells assessed as cell growth at 0.01 uM incubated for 48 hrs by sulforhodamine B assay relative to control; format: functional; conditions: SNB-19, 48 h, read-out: Activity
# [10] = test system: SN12C; experiment: Growth inhibition of human SN12C cells assessed as cell growth at 0.01 uM incubated for 48 hrs by sulforhodamine B assay relative to control; format: functional; conditions: read-out: Activity
# [11] = test system: SF-268; experiment: Growth inhibition of human SF268 cells assessed as cell growth at 0.1 uM incubated for 48 hrs by sulforhodamine B assay relative to control; format: functional; conditions: SF-268, 48 h, read-out: Activity
# [12] = test system: SNB-19; experiment: Growth inhibition of human SNB19 cells assessed as cell growth at 0.1 uM incubated for 48 hrs by sulforhodamine B assay relative to control; format: functional; conditions: SNB-19, 48 h, read-out: Activity
# [13] = test system: U-251; experiment: Growth inhibition of human U251 cells assessed as cell growth at 0.1 uM incubated for 48 hrs by sulforhodamine B assay relative to control; format: functional; conditions: U-251, 48 h, read-out: Activity
# [14] = test system: OVCAR-5; experiment: Growth inhibition of human OVCAR5 cells assessed as cell growth at 0.1 uM incubated for 48 hrs by sulforhodamine B assay relative to control; format: functional; conditions: OVCAR-5, 48 h, read-out: Activity
# [15] = test system: RXF 393; experiment: Growth inhibition of human RXF393 cells assessed as cell growth at 0.1 uM incubated for 48 hrs by sulforhodamine B assay relative to control; format: functional; conditions: RXF 393, 48 h, read-out: Activity
# [16] = test system: NCI-H23; experiment: Growth inhibition of human NCI-H23 cells assessed as cell growth at 1 uM incubated for 48 hrs by sulforhodamine B assay relative to control; format: functional; conditions: NCI-H23, 48 h, read-out: Activity
# [17] = test system: SF-268; experiment: Growth inhibition of human SF268 cells assessed as cell growth at 1 uM incubated for 48 hrs by sulforhodamine B assay relative to control; format: functional; conditions: SF-268, 48 h, read-out: Activity
# [18] = test system: SF-539; experiment: Growth inhibition of human SF539 cells assessed as cell growth at 1 uM incubated for 48 hrs by sulforhodamine B assay relative to control; format: functional; conditions: SF-539, 48 h, read-out: Activity
# [19] = test system: SNB-75; experiment: Growth inhibition of human SNB75 cells assessed as cell growth at 1 uM incubated for 48 hrs by sulforhodamine B assay relative to control; format: functional; conditions: SNB-75, 48 h, read-out: Activity
# [20] = test system: Malme-3M; experiment: Growth inhibition of human MALME-3M cells assessed as cell growth at 1 uM incubated for 48 hrs by sulforhodamine B assay relative to control; format: functional; conditions: read-out: Activity
# [21] = test system: UACC-62; experiment: Growth inhibition of human UACC62 cells assessed as cell growth at 1 uM incubated for 48 hrs by sulforhodamine B assay relative to control; format: functional; conditions: UACC-62, 48 h, read-out: Activity
# [22] = test system: SN12C; experiment: Growth inhibition of human SN12C cells assessed as cell growth at 1 uM incubated for 48 hrs by sulforhodamine B assay relative to control; format: functional; conditions: read-out: Activity
# [23] = test system: UO-31; experiment: Growth inhibition of human UO31 cells assessed as cell growth at 1 uM incubated for 48 hrs by sulforhodamine B assay relative to control; format: functional; conditions: UO-31, 48 h, read-out: Activity
# [24] = test system: MCF7; experiment: Growth inhibition of human MCF7 cells assessed as cell growth at 1 uM incubated for 48 hrs by sulforhodamine B assay relative to control; format: functional; conditions: MCF7, 48 h, read-out: Activity
# [25] = test system: Hs-578T; experiment: Growth inhibition of human Hs578T cells assessed as cell growth at 1 uM incubated for 48 hrs by sulforhodamine B assay relative to control; format: functional; conditions: read-out: Activity
# [26] = test system: NCI-H226; experiment: Growth inhibition of human NCI-H226 cells assessed as cell growth at 100 uM incubated for 48 hrs by sulforhodamine B assay relative to control; format: functional; conditions: NCI-H226, 48 h, read-out: Activity
# [27] = test system: HCC 2998; experiment: Growth inhibition of human HCC2998 cells assessed as cell growth at 100 uM incubated for 48 hrs by sulforhodamine B assay relative to control; format: functional; conditions: HCC 2998, 48 h, read-out: Activity
# [28] = test system: IGROV-1; experiment: Growth inhibition of human IGROV1 cells assessed as cell growth at 100 uM incubated for 48 hrs by sulforhodamine B assay relative to control; format: functional; conditions: IGROV-1, 48 h, read-out: Activity
# [29] = test system: OVCAR-3; experiment: Growth inhibition of human OVCAR3 cells assessed as cell growth at 100 uM incubated for 48 hrs by sulforhodamine B assay relative to control; format: functional; conditions: OVCAR-3, 48 h, read-out: Activity
# [30] = test system: OVCAR-5; experiment: Growth inhibition of human OVCAR5 cells assessed as cell growth at 100 uM incubated for 48 hrs by sulforhodamine B assay relative to control; format: functional; conditions: OVCAR-5, 48 h, read-out: Activity
# [31] = test system: NCI/ADR-RES; experiment: Growth inhibition of human NCI/ADR-RES cells assessed as cell growth at 100 uM incubated for 48 hrs by sulforhodamine B assay relative to control; format: functional; conditions: read-out: Activity
# [32] = read-out: LC50 (the source's name)
# [33] = read-out: pLC50 (the source's name) (converted)
compound,measurement,setting,value
O=C(Nc1cccc(-n2cc(-c3ccncc3)c(-c3cc(O)cc(Cl)c3)n2)c1)c1cc(C(F)(F)F)cc(C(F)(F)F)c1,GI50,[1]; read-out: GI50,7.92 µM
same,CC50,[1]; [32],> 100 µM
same,TGI,[1]; read-out: TGI,> 100 µM
same,GI50,[1]; read-out: pGI50 (converted),7.94 µM
same,CC50,[1]; [33],> 100 µM
same,TGI,[1]; read-out: pTGI (converted),> 100 µM
same,GI50,[2]; read-out: GI50,6.38 µM
same,CC50,[2]; [32],> 100 µM
same,TGI,[2]; read-out: TGI,> 100 µM
same,GI50,[2]; read-out: pGI50 (converted),6.46 µM
same,CC50,[2]; [33],> 100 µM
same,TGI,[2]; read-out: pTGI (converted),> 100 µM
same,GI50,[3]; read-out: GI50,7.96 µM
same,CC50,[3]; [32],> 100 µM
same,TGI,[3]; read-out: TGI,> 100 µM
same,GI50,[3]; read-out: pGI50 (converted),7.94 µM
same,CC50,[3]; [33],> 100 µM
same,TGI,[3]; read-out: pTGI (converted),> 100 µM
same,IC50,[4],3.28 µM
same,GI50,[4]; read-out: GI50,3.28 µM
same,CC50,[4]; [32],> 100 µM
same,TGI,[4]; read-out: TGI,25.7 µM
same,GI50,[4]; read-out: pGI50 (converted),3.31 µM
same,CC50,[4]; [33],> 100 µM
same,TGI,[4]; read-out: pTGI (converted),10.2 µM
same,LC50,[5],24.5 µM
same,GI50,[5]; read-out: GI50,1.59 µM
same,TGI,[5]; read-out: TGI,43.6 µM
same,GI50,[5]; read-out: pGI50 (converted),1.7 µM
same,TGI,[5]; read-out: pTGI (converted),4.37 µM
same,IC50,[6],2.28 µM
same,GI50,[6]; read-out: GI50,2.28 µM
same,CC50,[6]; [32],> 100 µM
same,TGI,[6]; read-out: TGI,22.5 µM
same,GI50,[6]; read-out: pGI50 (converted),2.29 µM
same,CC50,[6]; [33],> 100 µM
same,TGI,[6]; read-out: pTGI (converted),28.2 µM
same,growth at 0.01 µM,[7],94%
same,growth at 0.01 µM,[8],96%
same,growth at 0.01 µM,[9],97%
same,growth at 0.01 µM,[10],97%
same,growth at 0.1 µM,[11],95%
same,growth at 0.1 µM,[12],97%
same,growth at 0.1 µM,[13],93%
same,growth at 0.1 µM,[14],54%
same,growth at 0.1 µM,[15],94%
same,growth at 1 µM,[16],98%
same,growth at 1 µM,[17],94%
same,growth at 1 µM,[18],91%
same,growth at 1 µM,[19],72%
same,growth at 1 µM,[20],59%
same,growth at 1 µM,[21],92%
same,growth at 1 µM,[22],91%
same,growth at 1 µM,[23],71%
same,growth at 1 µM,[24],54%
same,growth at 1 µM,[25],92%
same,growth at 100 µM,[26],19%
same,growth at 100 µM,[27],-34%
same,growth at 100 µM,[28],22%
same,growth at 100 µM,[29],-10%
same,growth at 100 µM,[30],-32%
same,growth at 100 µM,[31],9%

# From ChEMBL document CHEMBL4308841, “Synthesis, in vitro antiproliferative activity, and kinase inhibitory effects of pyrazole-containing diarylureas and diarylamides” (Eur J Med Chem, 2018)
